Values of other authors as cited in paper PMC10010621, “ATP binding by an F1Fo ATP synthase ε subunit is pH dependent, suggesting a diversity of ε subunit functional regulation in bacteria” (Frontiers in Molecular Biosciences, 2023).

What was measured:
[1] = design: method as in Tanokura et al., 1976; details: solution phase; ref Tanokura et al., 1976
Bacillus PS3 ε subunit = details: isolated ε subunit; ref Kato et al., 2007; read-out: Kd (ATP binding affinity)
[2] = target: εR103A/εR115A double-mutant ε subunit of Bacillus PS3; design: method as in Kato-Yamada, 2016; details: ref Kato-Yamada, 2016, read-out: ATP binding affinity
[3] = target: Bacillus subtilis ε subunit; design: method as in Kato-Yamada, 2005; Krah et al., 2021; details: isolated ε subunit; ref Kato-Yamada, 2005; Krah et al., 2021; read-out: Kd (ATP binding affinity)
[4] = test system: B. subtilis ε subunit εE102A; design: method as in Krah et al., 2021; details: εE102A versus wild-type; ref Krah et al., 2021
[5] = test system: B. subtilis ε subunit εE102R; design: method as in Krah et al., 2021; details: εE102R versus wild-type; ref Krah et al., 2021
[6] = test system: Escherichia coli ε subunit; design: method as in Yagi et al., 2007; details: isolated ε subunit; ref Yagi et al., 2007; read-out: Kd (ATP binding affinity)
[7] = test system: ε subunit of M. tuberculosis; design: method as in Biukovic et al., 2013; details: at the conditions measured; ref Biukovic et al., 2013
[8] = test system: C. thermarum ε subunit NTH mutant (εD89A, εR92A); design: method as in Ferguson et al., 2016; details: F1 domain, ref Ferguson et al., 2016

Row | Compound | pKa of the imidazole group [1] | Kd (Bacillus PS3 ε subunit) | Kd [2] | Kd [3] | increase in ATP binding affinity [4] | increase in ATP binding affinity [5] | Kd [6] | ATP binding [7] | ATP binding [8]
1 | N[C@@H](Cc1c[nH]cn1)C(=O)O [histidine] | 6.0–6.5 |  |  |  |  |  |  |  | 
2 | Nc1ncnc2c1ncn2[C@@H]1O[C@H](COP(=O)(O)OP(=O)(O)OP(=O)(O)O)[C@@H](O)[C@H]1O [ATP] |  | 4.3 µM | 0.052 µM | 2100 µM | ~10 fold | ~54 fold | 22000 µM | did not bind to ATP | lack of ability to bind ATP
